The record followed here is patent US7538085B2, “Peptide deformylase inhibitors as novel antibiotics” (The Ohio State University Research Foundation, priority 2003, dated 2009).

≈ marks a conversion by molar mass, not a printed value. Where “and” joins values, the source holds several entries; their conditions need not be identical. Equal values may be shown once. Read-outs that look alike come from different tables or passages of the source.

The term Ki denotes a measure of affinity in units of concentration, obtained from inhibition or displacement. Usually remaining activity stands for what remains of the control signal, in per cent.

The target in assay [1] is T1, Co(II)-substituted E. coli PDF (Escherichia coli, UniProt P0A6K3).
T1 construct: made in house
T1 sequence (P0A6K3 whole entry): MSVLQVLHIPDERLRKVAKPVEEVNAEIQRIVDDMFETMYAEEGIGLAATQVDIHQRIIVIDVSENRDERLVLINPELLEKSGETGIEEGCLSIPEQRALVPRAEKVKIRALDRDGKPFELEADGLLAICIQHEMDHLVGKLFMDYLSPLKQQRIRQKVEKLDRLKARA
Put plainly: PDF assay coupled to formate dehydrogenase. The format is biochemical.

Assay [2] addresses T2, E. coli PDF (Escherichia coli, UniProt P0A6K3).
T2 construct: made in house
Briefly: Aminopeptidase assay of PDF inhibition. Format: biochemical. The protocol:
Aminopeptidase Assay of Compound 2 The inhibition constant was also determined independently using and aminopeptidase assay.^37 Assay reactions (total volume of 500 μL) containing 50 mM Hepes (pH 7.0), 150 mM NaCl, 8.0 nM E. coli PDF, and 0-50 nM inhibitor 2 were incubated on ice for 2 h. Prior to reaction initiation, the mixture was brought to room temperature for 10 min. The PDF reaction was then initiated by the addition of substrate formyl-Met-Leu-p-nitronilide (final concentration 110 μM) and allowed to proceed for 3 min at room temperature before being quenched by heating at 95° C. for 10 min (the inactivation process is usually complete within the first 30 s). After cooling to room temperature, 1.0 unit of Aeromonas aminopeptidase (AAP) was added to the solution and the mixture was incubated for 15 min at room temperature. The absorbance at 405 nm was measured on a UV-Vis spectrophotometer. […] For all end-point assay reactions, the substrate to product conversion was kept at <20%.

Assay [3] addresses T3, MMP-1 (Homo sapiens, UniProt P03956).
T3 sequence (P03956 100-469): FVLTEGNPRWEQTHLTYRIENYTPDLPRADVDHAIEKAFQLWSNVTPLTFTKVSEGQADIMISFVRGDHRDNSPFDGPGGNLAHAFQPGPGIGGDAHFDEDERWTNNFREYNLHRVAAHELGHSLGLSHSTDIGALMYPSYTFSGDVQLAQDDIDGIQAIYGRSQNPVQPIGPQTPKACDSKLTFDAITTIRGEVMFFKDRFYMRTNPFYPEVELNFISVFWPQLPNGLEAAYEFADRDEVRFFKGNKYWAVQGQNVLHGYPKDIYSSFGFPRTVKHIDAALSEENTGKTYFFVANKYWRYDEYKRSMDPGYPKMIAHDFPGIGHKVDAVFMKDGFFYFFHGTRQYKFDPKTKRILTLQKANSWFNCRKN
Put plainly: Inhibition of human matrix metalloproteases. The format is biochemical. The conditions noted are these: read-out: percentage of MMP-1 activity remaining. On the procedure: (§1) Inhibition of Metalloproteases (MMP) Several of the inhibitors were tested for inhibition of human matrix metalloproteases, which are often used as indicators of inhibitor selectivity (no inhibition of MMP is desired). Each inhibitor was tested at two different concentrations (1.0 and 10 μM). The values reported are the percentage of MMP activity remaining in the presence of added inhibitor.

For assay [4], the target named is MMP-3 (Homo sapiens, UniProt P08254). Briefly: Inhibition of human matrix metalloproteases. The format is biochemical. Particulars: read-out: percentage of MMP-3 activity remaining. On the procedure:
as §1

The target of assay [5] is MMP-9 (Homo sapiens, UniProt P14780). Briefly: Inhibition of human matrix metalloproteases. The conditions noted are these: read-out: percentage of MMP-9 activity remaining. The format is biochemical. The protocol: as §1
MMP-9, sequence (P14780 94-707): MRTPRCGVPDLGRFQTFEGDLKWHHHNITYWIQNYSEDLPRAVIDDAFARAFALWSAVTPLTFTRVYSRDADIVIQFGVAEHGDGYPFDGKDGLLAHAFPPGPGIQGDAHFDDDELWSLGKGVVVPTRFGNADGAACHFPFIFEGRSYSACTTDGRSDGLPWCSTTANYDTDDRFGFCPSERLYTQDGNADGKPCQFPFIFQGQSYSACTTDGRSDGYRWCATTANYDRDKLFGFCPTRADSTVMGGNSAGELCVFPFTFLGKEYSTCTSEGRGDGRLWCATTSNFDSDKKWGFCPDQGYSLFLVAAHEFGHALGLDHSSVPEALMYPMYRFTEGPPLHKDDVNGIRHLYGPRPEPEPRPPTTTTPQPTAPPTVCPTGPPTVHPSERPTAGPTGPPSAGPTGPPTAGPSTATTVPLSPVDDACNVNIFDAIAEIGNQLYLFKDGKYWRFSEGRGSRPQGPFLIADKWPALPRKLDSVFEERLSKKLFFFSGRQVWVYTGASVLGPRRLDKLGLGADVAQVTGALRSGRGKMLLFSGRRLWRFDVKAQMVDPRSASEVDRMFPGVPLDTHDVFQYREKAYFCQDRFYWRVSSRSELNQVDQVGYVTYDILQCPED
The target of assay [6] is T4, MMP2 (Homo sapiens, UniProt P08253).
T4 sequence (P08253 110-660): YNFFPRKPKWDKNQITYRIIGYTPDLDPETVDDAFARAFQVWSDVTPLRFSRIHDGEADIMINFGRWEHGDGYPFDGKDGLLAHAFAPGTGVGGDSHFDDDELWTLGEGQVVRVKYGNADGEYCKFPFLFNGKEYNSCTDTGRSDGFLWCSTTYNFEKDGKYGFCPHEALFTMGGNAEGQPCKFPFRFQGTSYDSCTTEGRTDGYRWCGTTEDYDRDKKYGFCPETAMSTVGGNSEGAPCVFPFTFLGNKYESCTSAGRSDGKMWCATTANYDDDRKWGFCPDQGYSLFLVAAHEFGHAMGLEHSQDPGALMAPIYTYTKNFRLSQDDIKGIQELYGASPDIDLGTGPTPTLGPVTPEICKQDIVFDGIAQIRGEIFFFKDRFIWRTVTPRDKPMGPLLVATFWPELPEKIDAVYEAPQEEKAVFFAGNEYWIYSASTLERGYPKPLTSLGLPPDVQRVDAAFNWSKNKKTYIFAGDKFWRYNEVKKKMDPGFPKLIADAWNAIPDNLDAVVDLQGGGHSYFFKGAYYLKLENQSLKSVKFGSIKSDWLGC
Briefly: Inhibition of human matrix metalloproteases. The conditions noted are these: read-out: percentage of MMP2 activity remaining. Format: biochemical. On the procedure:
as §1

In assay [7] the test system is B. subtilis. Briefly: Antibacterial activity (cell growth, MIC). The format is cell-based. The conditions noted are these: Bacillus subtilis. On the procedure: (§2) FIG. 5 Inhibition of B. subtilis (A) and E. coli (B) cell growth by inhibitor 2. An overnight culture was diluted 1000-fold into 2 mL of fresh LB medium containing the specified concentrations of inhibitor 2 and incubated at 37° C. Cell densities were measured at the specified times on a UV-vis spectrophotometer.
(§3) The in vitro antibacterial activity of the cyclic inhibitor was tested against E. coli and Bacillus subtilis, the representative Gram-negative and Gram-positive bacteria, respectively.
(§4) Antimicrobial Susceptibility Testing. For Escherichia coli and Bacillus subtilis, cell growth was monitored on the Lambda-20 UV/Vis spectrophotometer at 600 nm. A single bacterial colony from a plate culture was grown overnight in LB media and was diluted 1000-fold into 2 mL of fresh growth medium containing 0-64 μg/mL of test agent in a 5-mL glass test tube shaken at a speed of 250 rpm. Cell growth (at 37° C.) was monitored for 0-600 min.
(§5) Antibacterial Activity of PDF Inhibitors Inhibitors 2-7E were tested against two or more bacterial strains for antibacterial activities.

The test system of assay [8] is E. coli. Briefly: Antibacterial activity (cell growth, MIC). Format: cell-based. Particulars: Escherichia coli. The protocol: as §2, §3, §4, §5
Assay [9] deals with E. faecalis (ATCC 29212). Briefly: Antibacterial activity (MIC). Format: cell-based. Particulars: Enterococcus faecalis, ATCC29212. The protocol:
as §5

Assay [10] has as its system H. influenzae (ATCC 31517). Briefly: Antibacterial activity (MIC). Particulars: Haemophilus influenzae, ATCC31517. Format: cell-based. On the procedure: as §5
Assay [11] has as its system M. catarrhalis (ATCC 37054). Put plainly: Antibacterial activity (MIC). The conditions noted are these: Moraxella catarrhalis, ATCC37054. Format: cell-based. The protocol:
as §5

Assay [12] has as its system S. aureus (ATCC 29213). Put plainly: Antibacterial activity (MIC). The conditions noted are these: Staphylococcus aureus, ATCC29213. Format: cell-based. On the procedure:
as §5

In assay [13] the test system is S. pneumoniae (ATCC 49619). Briefly: Antibacterial activity (MIC). Format: cell-based. Particulars: Streptococcus pneumoniae, ATCC49619. On the procedure:
as §5

The test system of assay [14] is S. pneumoniae (ATCC 6301). Put plainly: Antibacterial activity (MIC). Format: cell-based. Particulars: Streptococcus pneumoniae, ATCC6301. On the procedure: as §5
Assay [15] relates to S. pneumoniae (ATCC 6303). Put plainly: Antibacterial activity (MIC). Particulars: Streptococcus pneumoniae, ATCC6303. Format: cell-based. On the procedure: as §5

MMP-3, sequence (P08254 100-477): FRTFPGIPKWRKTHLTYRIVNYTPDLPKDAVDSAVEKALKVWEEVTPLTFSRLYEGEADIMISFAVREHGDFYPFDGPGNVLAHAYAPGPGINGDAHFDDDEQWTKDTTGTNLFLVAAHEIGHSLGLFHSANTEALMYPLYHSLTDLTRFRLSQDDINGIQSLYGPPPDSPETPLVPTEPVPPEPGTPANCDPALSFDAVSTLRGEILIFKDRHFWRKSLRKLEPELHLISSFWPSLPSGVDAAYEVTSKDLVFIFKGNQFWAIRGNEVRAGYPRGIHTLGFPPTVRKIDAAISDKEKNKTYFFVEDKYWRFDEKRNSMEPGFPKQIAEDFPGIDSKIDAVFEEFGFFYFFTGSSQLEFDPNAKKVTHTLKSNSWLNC
T2 sequence (P0A6K3 whole entry): as the sequence (P0A6K3 whole entry) above

As to `CC(C)(C)C1NC(=O)C(CN(O)C=O)CCCCCCCCCNC1=O` (stereo not drawn) [Compound 2, N-(3-tert-Butyl-2,5-dioxo-1,4-diaza-cyclopentadec-6-ylmethyl)-N-hydroxy-formamide], the Ki in assay [1] turned out to be 670 ± 200 pM; in assay [2], 330 ± 150 pM. Further, the “fold more potent against PDF than the acyclic parent/counterpart” value in assay [1] (cyclic versus acyclic inhibitor) is given as around 10 fold. Also, the remaining activity at 1 µM in assay [3] (inhibitor 1.0 μM) worked out at 93%; in assay [4] (inhibitor 1.0 μM) it was 97%; in assay [5] (inhibitor 1.0 μM), 95%; in assay [6] (inhibitor 1.0 μM), 96%. The remaining activity at 10 µM in assay [3] (inhibitor 10 μM) is 86%; in [4] (inhibitor 10 μM), 91%; in assay [5] (inhibitor 10 μM), 91%; in assay [6] (inhibitor 10 μM) it was 92%. The MIC in assay [7] (read-out: MIC) is 0.7 to 1.4 µg/mL; in assay [7] (read-out: minimal inhibitory concentration (MIC)) it was 2 to 4 µM; in assay [8], ~32 µM and ~12 µg/mL; in assay [9], above 32 µg/mL; in [10], 0.5 µg/mL (≈ 1.35 µM); in [11], 0.62 µg/mL (≈ 1.68 µM). Moreover, the MIC in assay [12] amounted to 16 µg/mL (≈ 43.3 µM); in assay [13], 4 µg/mL (≈ 10.8 µM); in [14], 4 µg/mL (≈ 10.8 µM); in assay [15], 2 µg/mL (≈ 5.41 µM).
